Results on 26 compounds are retold here after patent US8299111B2, “Compounds which modulate the CB2 receptor” (Boehringer Ingelheim International GmbH, priority 2006, dated 2012).

Each structure is given as a SMILES string.

In the assay the target is T1, human CB2R (Homo sapiens, UniProt P34972).
T1 construct: host or cells: CHO cells
T1 sequence (P34972 whole entry): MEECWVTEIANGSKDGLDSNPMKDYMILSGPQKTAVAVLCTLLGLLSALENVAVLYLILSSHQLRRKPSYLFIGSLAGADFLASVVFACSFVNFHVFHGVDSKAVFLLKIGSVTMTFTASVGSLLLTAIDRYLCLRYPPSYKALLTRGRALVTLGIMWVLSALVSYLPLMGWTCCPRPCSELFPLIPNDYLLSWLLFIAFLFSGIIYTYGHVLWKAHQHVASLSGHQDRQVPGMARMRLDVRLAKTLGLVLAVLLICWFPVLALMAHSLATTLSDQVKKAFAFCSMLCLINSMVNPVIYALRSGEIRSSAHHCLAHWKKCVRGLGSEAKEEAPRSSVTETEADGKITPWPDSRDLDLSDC
Nature of the assay: CB2R mediated modulation of cAMP synthesis. The class given is cell-based. The settings on record: found through the use of the above described assays (binding and cAMP); CHO cells expressing human CB2R, forskolin-stimulated cAMP. In short, it runs like this: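 CHO cells expressing human CB2R were treated for 30 min at 37 °C with compound in buffer containing 1 mM IBMX, 0.25% BSA and 10 uM forskolin. cAMP was measured after lysis. EC50 is the concentration giving 50% inhibition of forskolin-stimulated cAMP, scaled to the level set by 1 uM CP55940, fitted by four-parameter logistic.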
As to `CC(C)(C(=O)Nc1ccc(C(F)(F)F)cc1)S(=O)(=O)c1ccc(C(F)(F)F)nc1` [2-methyl-N-[4-(trifluoromethyl)phenyl]-2-{[6-(trifluoromethyl)pyridin-3-yl]sulfonyl}propanamide], the agonistic activity result is on record as “agonistic activity”. Take `CC(C)(C)c1ccccc1NC(=O)C(C)(C)S(=O)(=O)c1ccc(Cl)cc1` [N-(2-tert-Butyl-phenyl)-2-(4-chloro-benzenesulfonyl)-2-methyl-propionamide]: the agonistic activity result is listed as “agonistic activity”. Take `Cc1ccc(S(=O)(=O)C(C)(C)C(=O)Nc2ccc(C(F)(F)F)cn2)c(F)c1` [2-(2-Fluoro-4-methyl-benzenesulfonyl)-2-methyl-N-(5-trifluoromethyl-pyridin-2-yl)-propionamide]: the agonistic activity entry is on record as “agonistic activity”. The value for `CC(C)(C)c1cc(NC(=O)C2(S(=O)(=O)c3ccc(C(F)(F)F)cc3)CCC2)no1` [1-(4-Trifluoromethyl-benzenesulfonyl)-cyclobutanecarboxylic acid (5-tert-butyl-isoxazol-3-yl)-amide] was “agonistic activity”; that for `Cn1nc(C(C)(C)C)cc1NC(=O)C(C)(C)S(=O)(=O)c1ccc(F)cc1` [N-(5-tert-Butyl-2-methyl-2H-pyrazol-3-yl)-2-(4-fluoro-benzenesulfonyl)-2-methyl-propionamide] was “agonistic activity”. Consider `CC(C)(C(=O)Nc1cc(C(F)(F)F)ccn1)S(=O)(=O)c1ccc(Cl)cc1` [2-(4-Chloro-benzenesulfonyl)-2-methyl-N-(4-trifluoromethyl-pyridin-2-yl)-propionamide], for which the agonistic activity result is listed as “agonistic activity”. As to `CC(C)(C)c1cc(NC(=O)C2(S(=O)(=O)c3ccc(C(F)(F)F)cc3)CC2)no1` [1-(4-Trifluoromethyl-benzenesulfonyl)-cyclopropanecarboxylic acid (5-tert-butyl-isoxazol-3-yl)-amide], the agonistic activity result is given as “agonistic activity”.

Take `CC(C)(C(=O)Nc1nsc(-c2ccccc2)n1)S(=O)(=O)c1ccc(Cl)cc1F` [2-[(4-chloro-2-fluorophenyl)sulfonyl]-2-methyl-N-(5-phenyl-1,2,4-thiadiazol-3-yl)propanamide]: the agonistic activity entry was “agonistic activity”. With `CC(C)(C(=O)Nc1ncc(C2CCOCC2)s1)S(=O)(=O)c1ccc(Cl)cc1` [2-(4-Chloro-benzenesulfonyl)-2-methyl-N-[5-(tetrahydro-pyran-4-yl)-thiazol-2-yl]-propionamide] the entry was “agonistic activity”.

`CC(C)(C)c1cc(NC(=O)C(C)(C)S(=O)(=O)c2ccc(C(F)(F)F)nc2)no1` [N-(5-tert-Butyl-isoxazol-3-yl)-2-methyl-2-(6-trifluoromethyl-pyridine-3-sulfonyl)-propionamide]: the agonistic activity result was “agonistic activity”.

In the case of `CC(C)(C(=O)Nc1ccc(C(F)(F)F)cn1)S(=O)(=O)c1ccc(F)cc1F` [2-[(2,4-difluorophenyl)sulfonyl]-2-methyl-N-[5-(trifluoromethyl)pyridin-2-yl]propanamide], the agonistic activity entry is “agonistic activity”. As for `CCc1ccnc(NC(=O)C(C)(C)S(=O)(=O)c2ccc(C(F)(F)F)nc2)c1` [N-(4-ethylpyridin-2-yl)-2-methyl-2-{[6-(trifluoromethyl)pyridin-3-yl]sulfonyl}propanamide], the agonistic activity entry is listed as “agonistic activity”.

For `CC(C)(C(=O)Nc1nc(-c2ccccc2)co1)S(=O)(=O)c1ccccc1` [2-Benzenesulfonyl-2-methyl-N-(4-phenyl-oxazol-2-yl)-propionamide], the agonistic activity entry is on record as “agonistic activity”. With `CC(C)(C(=O)Nc1noc2ccccc12)S(=O)(=O)c1ccc(Cl)cc1` [N-Benzo[d]isoxazol-3-yl-2-(4-chloro-benzenesulfonyl)-2-methyl-propionamide] the entry was “agonistic activity”; with `CC(C)(C(=O)Nc1ccccc1C(F)(F)F)S(=O)(=O)c1ccc(Cl)cc1` [2-(4-Chloro-benzenesulfonyl)-2-methyl-N-(2-trifluoromethyl-phenyl)-propionamide], “agonistic activity”.

Turning to `CC(C)(C)c1ccc(NC(=O)C(C)(C)S(=O)(=O)c2ccc(Cl)cc2F)cc1` [N-(4-tert-butylphenyl)-2-[(4-chloro-2-fluorophenyl)sulfonyl]-2-methylpropanamide], the agonistic activity result is recorded as “agonistic activity”.

Regarding `COc1ccc(S(=O)(=O)C(C)(C)C(=O)Nc2c(C)c(-c3ccccc3)nn2C)cc1` [N-(1,4-dimethyl-3-phenyl-1H-pyrazol-5-yl)-2-[(4-methoxyphenyl)sulfonyl]-2-methylpropanamide], the agonistic activity entry was “agonistic activity”. The value for `CC(C)(C(=O)Nc1ccc(C(F)(F)F)cn1)S(=O)(=O)c1ccc(C#N)cc1F` [2-(4-Cyano-2-fluoro-benzenesulfonyl)-2-methyl-N-(5-trifluoromethyl-pyridin-2-yl)-propionamide] was “agonistic activity”. For the compound `CC(C)(C)c1csc(NC(=O)C(C)(C)S(=O)(=O)c2cccnc2)n1` [N-(4-tert-Butyl-thiazol-2-yl)-2-methyl-2-(pyridine-3-sulfonyl)-propionamide], the agonistic activity entry is “agonistic activity”. The value for `Cc1c(-c2ccccc2)nn(C)c1NC(=O)C(C)(C)S(=O)(=O)c1ccc(Cl)cc1` [2-(4-Chloro-benzenesulfonyl)-N-(2,4-dimethyl-5-phenyl-2H-pyrazol-3-yl)-2-methyl-propionamide] was “agonistic activity”.

In the case of `COc1ccc(S(=O)(=O)C(C)(C)C(=O)Nc2cc(CC(C)(C)C)no2)cc1` [N-[3-(2,2-dimethylpropyl)isoxazol-5-yl]-2-[(4-methoxyphenyl)sulfonyl]-2-methylpropanamide], the agonistic activity result is on record as “agonistic activity”. With `CCc1ccnc(NC(=O)C(C)(C)S(=O)(=O)c2ccc(S(C)(=O)=O)cc2)c1` [N-(4-ethylpyridin-2-yl)-2-methyl-2-{[4-(methylsulfonyl)phenyl]sulfonyl}propanamide] the entry was “agonistic activity”. With `Cc1nc(NC(=O)C(C)(C)S(=O)(=O)c2cccc(C(F)(F)F)c2)sc1C(C)(C)C` [N-(5-tert-Butyl-4-methyl-thiazol-2-yl)-2-methyl-2-(3-trifluoromethyl-benzenesulfonyl)-propionamide] the entry was “agonistic activity”; with `CC(C)(C)c1cnc(NC(=O)C2(S(=O)(=O)c3ccc(C(F)(F)F)cc3)CCC2)s1` [1-(4-Trifluoromethyl-benzenesulfonyl)-cyclobutanecarboxylic acid (5-tert-butyl-thiazol-2-yl)-amide], “agonistic activity”; with `CC(C)(C)c1nnc(NC(=O)C(C)(C)S(=O)(=O)c2ccc(Cl)cc2F)s1` [N-(5-tert-butyl-1,3,4-thiadiazol-2-yl)-2-[(4-chloro-2-fluorophenyl)sulfonyl]-2-methylpropanamide], “agonistic activity”.

`COc1ccc(S(=O)(=O)C(C)(C)C(=O)Nc2cc(-c3ccccc3)nn2C)cc1` [2-(4-Methoxy-benzenesulfonyl)-2-methyl-N-(2-methyl-5-phenyl-2H-pyrazol-3-yl)-propionamide]: the agonistic activity result is listed as “agonistic activity”.
